In patent publication US20260124324A1, “PHOTOCLICK CHEMISTRY OF SILK FOR TEMPORARY UV TATTOOS” (Trustees of Tufts College, priority 2023, published 2026):

Tests used:
[1] = system: human dermal fibroblasts (hDFs); experiment: 2D metabolic toxicity assay (MTT); details: positive control, 1% in media, 24 hours
[2] = system: human dermal fibroblasts (hDFs); experiment: Fluorescence microscopy of tattooed 3D skin-simulating scaffolds; format: cell-based; details: 7 days after tattooing, phalloidin and DAPI staining
Method: Cell-laden 3D scaffolds were fixed in a 2% formalin solution in PBS for 2 hours with gentle oscillatory mixing. All subsequent washing steps were performed for 30 minutes with oscillatory mixing with the indicated solution. The formalin solution was then decanted, and the scaffolds were washed 3 times with DI water. The cell membranes were permeabilized by washing the scaffolds with acetone solution (50% v/v acetone in 1×PBS) for 30 minutes. The samples were then washed 3 times with PBS-T (1×PBS, […]), then blocked with 1 mg/mL BSA in PBS-T (1×PBS, 0.1% Triton X-100). Actin was stained with phalloidin-488 (Invitrogen A12379) for 1 hour, then washed 3 times with 1×PBS. Nuclei were stained with DAPI (Invitrogen D3571) for 30 minutes then washed with PBS 3 times. Scaffolds were stored in 1×PBS at 4 C until imaged.
Fixed and stained samples as well as tattooed imaging phantoms were imaged with a Keyence BZ-X710 all-in-one fluorescence microscope. The DAPI filter channel (ex/em 355/450) was used to image both the DAPI stain, fluorescent pyrazoline-laden microparticles, and aqueous SilMA-pyrazoline tattoo inks. The GFP channel (ex/em 488/510) was used to image the phalloidin-stained actin.
Silk fibroin solution (5% w/w) was pipetted into a 24 well plate (1.5 mL per well) and frozen at −20 C. […]

[3] = system: human dermal fibroblasts (hDFs); experiment: 2D cell morphology by bright field transmission microscopy; format: cell-based; details: positive control, 1% in media, 24 hour incubation
Excerpt: Images were taken with a Motic AE2000 inverted microscope in bright field transmission through the bottom of transparent 96 well plates. Images from 2D cell culture were processed in GNU Image Manipulation Program V 2.10.12. Contrast was enhanced by changing light and dark levels to maximize the dynamic range of the image. The illumination artifacts were removed by creating a duplicate image on a separate layer and blurring it with a Gaussian blur strength 12.0. This layer was placed below the normal layer, and the two layers were mixed in the “Grain Extract” mixing mode. This process inverts the colors, so the color was inverted again to restore the original orientation.
Cellular morphology is an independent method of assessing cellular health. When healthy, cells like hDFs will adhere to flat plates in 2D culture and multiply rapidly, until they form a confluent layer. The pressure from surrounding cells tends to cause the cells to adopt an elongated and tubular morphology, often aligned with their neighboring cells. When cells are damaged, they will often suffer cytoskeletal damage and will lose their elongated morphology. Dead HDFs will be at the extreme end of this trend, appearing as very small spheres, devoid of cytoskeleton entirely.

Triton X-100
metabolic capacity (MTT) [1]: completely destroyed the metabolic capacity of the cells
cell morphology / localized cytotoxicity in 3D scaffold [2]: only background fluorescence
cellular morphology [3]: small hard spheres indicative of dead cells
